Data: patent US10128078B2, “Protective agent for electron microscopic observation of biological sample in water-containing state, kit for electron microscopic observation, methods for observation, diagnosis, evaluation, and quantification by electron microscope, and sample stage” (JAPAN SCIENCE AND TECHNOLOGY AGENCY, priority 2014, dated 2018)

Columns and labels:
artificial human skin = assay: SEM observation of three-dimensionally cultured artificial human skin after adding a drug (side effect evaluation); type: cell-based; conditions: 60 minutes after gefitinib dissolved in DMSO was added; SEM 2,500-fold; DMSO control kept normal morphology
Description: (§1) A protective agent for electron microscopic observation and a surfactant-containing solution were prepared in the same manner as in Example 1.
The artificial human skin obtained by sterically three-dimensionally culturing a normal human skin cell was treated with the protective agent for electron microscopic observation and the surfactant-containing solution in 60 minutes after gefitinib was added the artificial human skin. Thereafter, the artificial human skin covered with the surfactant-containing solution was introduced into the sample chamber of the SEM, irradiated with an electron beam to polymerize the surfactant-containing solution and thus to form a thin film, and subjected to the SEM observation (Example 12).
FIGS. 18A and 18B are photographs of the three-dimensionally cultured artificial human skin. FIG. 18A is a photograph which illustrates the artificial human skin being cultured and the culture vessel. In addition, FIG. 18B is a photograph of the HE-stained pathological section of the artificial human skin of FIG. 18A. FIG. 19(a) is an image of the artificial human skin which was observed and taken at a magnification of 2,500-fold by a SEM after gefitinib dissolved in dimethyl sulfoxide (DMSO) was added the artificial human skin. […]

[1] = test system: metastatic human melanoma cell line; assay: SEM observation of metastatic human melanoma cell line inoculated on a cell sheet of normal human skin cell after adding an anti-cancer drug; type: cell-based; conditions: 60 minutes after sorafenib was added; cell sheet of human skin-derived fibroblast cell; SEM image
Description: as §1
A cell sheet obtained by culturing a normal human skin cell in a plate shape was inoculated with a metastatic human melanoma cell line and treated with the protective agent for electron microscopic observation and the surfactant-containing solution in 60 minutes after sorafenib of a kind of anti-cancer drug was added the cell sheet. Thereafter, the metastatic human melanoma cell line covered with the surfactant-containing solution was introduced into the sample chamber of the SEM, irradiated with an electron beam to polymerize the surfactant-containing solution and thus to form a thin film, and subjected to the SEM observation.
FIG. 17(a) is an image of the metastatic human melanoma cell line which was inoculated onto a cell sheet of the human skin-derived fibroblast cell, to which sorafenib was added, and which was observed and taken at a magnification of 1000-fold by a SEM. In addition, FIG. 17(b) is an image of FIG. 17(a) which was observed and taken at a magnification of 5000-fold by a SEM.

| SMILES | surface change of a skin cell (side effect) (artificial human skin) | extension of a microfiber and invasion of the melanoma cell line into the normal skin cell [1] |
| --- | --- | --- |
| COc1cc2ncnc(Nc3ccc(F)c(Cl)c3)c2cc1OCCCN1CCOCC1 [gefitinib] | peeled off in a scale shape | – |
| CNC(=O)c1cc(Oc2ccc(NC(=O)Nc3ccc(Cl)c(C(F)(F)F)c3)cc2)ccn1 [sorafenib] | – | not able to extend a microfiber so that the invasion thereof is suppressed |
